Data reported in patent publication US10975068B2, “6-aminopyridin-3-yl thiazoles as modulators of RORγT” (Janssen Pharmaceutica NV, priority 2016, dated 2021).
Where two headings read alike, the source gives them in different places.

Columns and labels:
[1] = molecular target: human RORγt ligand binding domain (RORγt LBD) (Homo sapiens (Human), UniProt P51449); test: RORγt ThermoFluor® assay (thermal shift binding); conditions: read-out: ThermoFluor® Assay, Kd
Outline: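 Binding was inferred from thermal stabilisation (ΔTm) of the E. coli-expressed RORγt LBD (0.065 mg/mL), monitored by 1,8-ANS (60 μM) emission at 500 nm during a 1 °C/min ramp. Buffer was Hepes 100 mM pH 7.0 with NaCl, GSH and Tween-20.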

full-length human RORγt = full-length human RORγt (Homo sapiens (Human), UniProt P51449); test: RORγt (full-length human) reporter assay, Conditions B or C; type: cell-based; conditions: for RORγt (FL) Reporter Assay B or C, % inhibition (value marked *): marked *: footnote not given; for IC50: read-out: RORγt (FL) Reporter Assay B or C, IC50; for inhibition at 3 µM: at 3 μM compound concentration, read-out: RORγt (FL) Reporter Assay B or C, % inhibition; for inhibition at 6 µM: read-out: RORγt (FL) Reporter Assay B or C, % inhibition @ 6 μM, Conditions B or C
Sequence of full-length human RORγt (P51449 other isoform, or with tags, fused parts or gaps): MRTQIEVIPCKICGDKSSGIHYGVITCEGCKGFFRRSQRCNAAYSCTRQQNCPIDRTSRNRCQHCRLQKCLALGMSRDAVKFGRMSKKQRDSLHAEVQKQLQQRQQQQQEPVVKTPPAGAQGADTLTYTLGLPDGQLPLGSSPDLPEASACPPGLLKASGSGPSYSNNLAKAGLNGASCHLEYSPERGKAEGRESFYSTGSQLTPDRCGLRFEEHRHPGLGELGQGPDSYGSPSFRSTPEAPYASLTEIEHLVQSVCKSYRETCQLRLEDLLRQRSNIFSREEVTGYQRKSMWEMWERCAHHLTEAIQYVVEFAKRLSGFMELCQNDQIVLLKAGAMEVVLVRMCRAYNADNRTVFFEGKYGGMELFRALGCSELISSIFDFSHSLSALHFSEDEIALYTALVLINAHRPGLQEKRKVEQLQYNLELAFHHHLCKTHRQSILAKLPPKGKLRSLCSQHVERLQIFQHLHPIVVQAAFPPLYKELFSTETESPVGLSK
Outline: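 Readout is dual luciferase: firefly (GAL4-driven) normalized to DMSO-only and saturating-reference controls, then to CMV-Renilla. Full-length human RORγt fused to GAL4-DBD was transiently expressed in HEK293T; compound exposure ran overnight (16-20 h) starting 4-6 h after transfection, final FBS 1.3%, DMSO 0.1%.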

Sequence of human RORγt ligand binding domain (RORγt LBD) (P51449 other isoform, or with tags, fused parts or gaps): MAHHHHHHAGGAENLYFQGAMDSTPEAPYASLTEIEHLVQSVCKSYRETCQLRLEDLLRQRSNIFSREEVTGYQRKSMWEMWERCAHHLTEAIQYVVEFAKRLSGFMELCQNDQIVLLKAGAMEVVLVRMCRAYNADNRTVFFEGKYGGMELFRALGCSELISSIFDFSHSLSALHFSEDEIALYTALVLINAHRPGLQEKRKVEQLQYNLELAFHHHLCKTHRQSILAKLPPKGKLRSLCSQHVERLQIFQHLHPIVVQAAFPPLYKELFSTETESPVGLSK

SMILES	Kd [1] [nM]	RORγt (FL) Reporter Assay B or C, % inhibition (value marked *) (full-length human RORγt; Conditions B or C)	IC50 (full-length human RORγt; Conditions B or C) [nM]	inhibition at 3 µM (full-length human RORγt) [%]	IC50 (full-length human RORγt) [nM]	inhibition at 6 µM (full-length human RORγt) [%]
CC(C)(O)CNC(=O)c1nc(C(=O)N2C3CCC2CC3)c(-c2cnc(NC(C)(C)C)cc2C(F)(F)F)s1 [Example 79, 4-((1s,4s)-7-Azabicyclo[2.2.1]heptane-7-carbonyl)-5-(6-(tert-butylamino)-4-(trifluoromethyl)pyridin-3-yl)-N-(2-hydroxy-2-methylpropyl)thiazole-2-carboxamide]	1.2	111* %	8.3			
C[C@H]1CCCN1C(=O)c1nc(C(=O)N[C@H]2C[C@H](O)C2)sc1-c1cnc(N[C@H](C2CC2)C(F)(F)F)cc1C(F)F [Example 320, 5-(6-(((R)-1-Cyclopropyl-2,2,2-trifluoroethyl)amino)-4-(difluoromethyl)pyridin-3-yl)-N-((1r,3S)-3-hydroxycyclobutyl)-4-((S)-2-methylpyrrolidine-1-carbonyl)thiazole-2-carboxamide]	3.8			98	46	
C[C@@H](Nc1cc(C(F)F)c(-c2sc(C(=O)NCC(C)(C)O)nc2C(=O)N2CCC[C@@H]2C)cn1)C1CC1 [Example 50, 5-(6-(((R)-1-Cyclopropylethyl)amino)-4-(difluoromethyl)pyridin-3-yl)-N-(2-hydroxy-2-methylpropyl)-4-((S)-2-methylpyrrolidine-1-carbonyl)thiazole-2-carboxamide]	71	100* %	58			
C[C@H]1CC(F)(F)CN1C(=O)c1nc(C(=O)NCC(C)(C)O)sc1-c1cnc(NC2(C)CCC2)cc1C(F)F [Example 168]	1.8	106* %	200			
C[C@H](Nc1cc(C(F)(F)F)c(-c2sc(C(=O)NCC(C)(C)O)nc2C(=O)N2CC(F)(F)C[C@@H]2C)cn1)C(F)(F)F [Example 110, 4-((S)-4,4-Difluoro-2-methylpyrrolidine-1-carbonyl)-N-(2-hydroxy-2-methylpropyl)-5-(4-(trifluoromethyl)-6-(((S)-1,1,1-trifluoropropan-2-yl)amino)pyridin-3-yl)thiazole-2-carboxamide]	2.2	112* %	26			
C[C@H](Nc1cc(C(F)F)c(-c2sc(C(=O)NCC(C)(C)O)nc2C(=O)N2CCC[C@@H]2C)cn1)C1CC1 [Example 43, 5-(6-(((S)-1-Cyclopropylethyl)amino)-4-(difluoromethyl)pyridin-3-yl)-N-(2-hydroxy-2-methylpropyl)-4-((S)-2-methylpyrrolidine-1-carbonyl)thiazole-2-carboxamide]	4.9		22			107
C[C@H](Nc1cc(C(F)F)c(-c2sc(C(=O)N[C@@H]3CC[C@H]3O)nc2C(=O)N2C3CCC2CC3)cn1)C(F)(F)F (relative stereo) [Example 291, 4-((1s,4s)-7-Azabicyclo[2.2.1]heptane-7-carbonyl)-5-(4-(difluoromethyl)-6-(((S)-1,1,1-trifluoropropan-2-yl)amino)pyridin-3-yl)-N-((1R*,2R*)-2-hydroxycyclobutyl)thiazole-2-carboxamide]	6.9			113	120	
C[C@@H](Nc1cc(C(F)(F)F)c(-c2sc(C(=O)NCC(C)(C)O)nc2C(=O)N2CCC(F)CC2)cn1)C1CC1 [Example 29, (R)-5-(6-((1-Cyclopropylethyl)amino)-4-(trifluoromethyl)pyridin-3-yl)-4-(4-fluoropiperidine-1-carbonyl)-N-(2-hydroxy-2-methylpropyl)thiazole-2-carboxamide]	22		22			105
C[C@H](NC(=O)c1nc(C(=O)N2CCC[C@@H]2C)c(-c2cnc(NC(C)(C)C)cc2C(F)(F)F)s1)[C@@H](C)O (relative stereo) [Example 238, 5-(6-(tert-Butylamino)-4-(trifluoromethyl)pyridin-3-yl)-N-((2S*,3R*)-3-hydroxybutan-2-yl)-4-((S)-2-methylpyrrolidine-1-carbonyl)thiazole-2-carboxamide]	5.5	92* %	29			
C[C@H]1CCN1C(=O)c1nc(C(=O)NCC(C)(C)O)sc1-c1cnc(NC2CCCCC2)cc1C(F)(F)F [Example 25, (S)-5-(6-(Cyclohexylamino)-4-(trifluoromethyl)pyridin-3-yl)-N-(2-hydroxy-2-methylpropyl)-4-(2-methylazetidine-1-carbonyl)thiazole-2-carboxamide]	120		220			102
C[C@H]1CCCN1C(=O)c1nc(C(=O)NC2(CO)CC2)sc1-c1cnc(NC(C)(C)C)cc1C(F)(F)F [Example 263, 5-[6-(tert-Butylamino)-4-(trifluoromethyl)-3-pyridyl]-N-[1-(hydroxymethyl)cyclopropyl]-4-[(2S)-2-methylpyrrolidine-1-carbonyl]thiazole-2-carboxamide]	1.1			107	6.6	
CC(C)(O)CNC(=O)c1nc(C(=O)N2C3CCC2CC3)c(-c2cnc(NC(C)(C)C3CC3)cc2C(F)F)s1 [Example 97, 4-((1s,4s)-7-Azabicyclo[2.2.1]heptane-7-carbonyl)-5-(6-((2-cyclopropylpropan-2-yl)amino)-4-(difluoromethyl)pyridin-3-yl)-N-(2-hydroxy-2-methylpropyl)thiazole-2-carboxamide]	1.3	111* %	3.6			
C[C@H](Nc1cc(C(F)F)c(-c2sc(C(=O)N3CC(S(C)(=O)=O)C3)nc2C(=O)N2CCC[C@@H]2C)cn1)C(F)(F)F [Example 450]	50			106	230	
CC[C@H](Nc1cc(C(F)F)c(-c2sc(C(=O)N[C@@H](C)C(C)(C)O)nc2C(=O)N2C3CCC2CC3)cn1)C(F)(F)F [Example 248]	3.4	102* %	16			
CC[C@H](Nc1cc(C(F)F)c(-c2sc(C(=O)N[C@H]3CCC[C@@H]3O)nc2C(=O)N2C3CCC2CC3)cn1)C(F)(F)F [Example 210, 4-((1s,4s)-7-Azabicyclo[2.2.1]heptane-7-carbonyl)-5-(4-(difluoromethyl)-6-(((1S)-1-(trifluoromethyl)propyl)amino)-3-pyridyl)-N-((1S,2S)-2-hydroxycyclopentyl)thiazole-2-carboxamide]	0.69	105* %	21			
CC[C@H](Nc1cc(C(F)F)c(-c2sc(C(=O)N[C@H]3C[C@H](O)C3)nc2C(=O)N2C3CCC2CC3)cn1)C(F)(F)F [Example 222, 4-((1s,4s)-7-Azabicyclo[2.2.1]heptane-7-carbonyl)-5-(4-(difluoromethyl)-6-(((1S)-1-(trifluoromethyl)propyl)amino)-3-pyridyl)-N-((1r,3S)-3-hydroxycyclobutyl)thiazole-2-carboxamide]	10	113* %	12			
C[C@H]1CCCN1C(=O)c1nc(C(=O)N[C@H]2C[C@H](S(C)(=O)=O)C2)sc1-c1cnc(NC2CCCC2)cc1C(F)F [Example 72, 5-(6-(Cyclopentylamino)-4-(difluoromethyl)pyridin-3-yl)-4-((S)-2-methylpyrrolidine-1-carbonyl)-N-((1r,3r)-3-(methylsulfonyl)cyclobutyl)thiazole-2-carboxamide]	35	104* %	89			
CC[C@H](CO)NC(=O)c1nc(C(=O)N2CCC[C@@H]2C)c(-c2cnc(N[C@@H](C)C(F)(F)F)cc2C(F)F)s1 [Example 408, 5-[4-(Difluoromethyl)-6-[[(1S)-2,2,2-trifluoro-1-methyl-ethyl]amino]-3-pyridyl]-N-[(1R)-1-(hydroxymethyl)propyl]-4-[(2S)-2-methylpyrrolidine-1-carbonyl]thiazole-2-carboxamide]	3.8			83	73	
CC[C@@H](Nc1cc(C(F)F)c(-c2sc(C(=O)NCC(C)(C)O)nc2C(=O)N2CCC[C@@H]2C)cn1)C1CC1 (relative stereo) [Example 167, 5-(6-(((R*)-1-Cyclopropyl)amino)-4-(difluoromethyl)pyridine-3-yl)-N-(2-hydroxy-2-methylpropyl)-4-((S)-2-methylpyrrolidine-1-carbonyl)thiazole-2-carboxamide]	3.7	100* %	120			
C[C@H]1CCCN1C(=O)c1nc(C(=O)NC[C@H](O)CO)sc1-c1cnc(NC(C)(C)C)cc1C(F)(F)F [Example 363, 5-[6-(tert-Butylamino)-4-(trifluoromethyl)-3-pyridyl]-N-[(2S)-2,3-dihydroxypropyl]-4-[(2S)-2-methylpyrrolidine-1-carbonyl]thiazole-2-carboxamide]	13			111	130	
C[C@H]1CCCN1C(=O)c1nc(C(=O)N[C@@H]2CC[C@H]2O)sc1-c1cnc(NC(C)(C)C)cc1C(F)(F)F (relative stereo) [Example 370, 5-(6-(tert-Butylamino)-4-(trifluoromethyl)pyridin-3-yl)-N-((1R*,2R*)-2-hydroxycyclobutyl)-4-((S)-2-methylpyrrolidine-1-carbonyl)thiazole-2-carboxamide]	0.69			96	10	
